Columns and labels:
Type in all cases: physicochemical
[1] = Bulk density according to USP 24, method I; settings: trihydrate
Source text: Preferably, the crystalline powder according to the invention has a bulk density higher than 0.46 g/ml, preferably higher than 0.5 g/ml, more preferably higher than 0.55 g/ml. This further improves the flow properties. Moreover, an increased bulk density is advantageous as crystalline powder may be fed into a certain volume, for instance a capsule. There is no specific upper limit for the bulk density. The bulk density may be less than 0.8 g/ml, for instance less than 0.7 g/ml. The bulk density is preferably determined according to USP 24, method I, (page 1913).
The bulk density was determined according to USP 24, method I, (page 1913).

[2] = Tapped density according to USP 24, method II; settings: trihydrate; for Tap. dens. (dt): USP 24, method II; for db*(1/db − 1/dt)*100%: compressibility index from bulk and tapped density
[3] = Particle size distribution (d10, d50) by laser diffraction, Malvern particle sizer 2600 C; settings: dry powder, f=300 mm, trihydrate
Source text: The d10 and d50 are known ways for indicating a particle size distribution, d50 referring to the value for the particle size such that 50 vol. % of the particles has a particle size smaller than said value. The d50 is also referred to as average volume-based grain size. Likewise, d10 refers to the value for the particle size such that 10 vol. % of the particles has a particle size smaller than said value. A preferred way for determining d10 and d50 is laser diffraction, preferably using Malvern equipment. A suitable apparatus for determining d10 and d50 is a Malvern particle sizer 2600 C obtainable from Malvern Instruments Ltd., Malvern UK, for instance using an objective of f=300 mm and a beam length of 14.30 mm. A polydisperse analysis model may advantageously be used.
The particle size distribution (including d10 and d50) of samples from the mixer was determined using a Malvern particle sizer 2600 C with objective f=300 mm, malvern sample measurement unit PS1 and a Malvern dry powder feeder PS 64. The beam length was 14.30 mm. A polydisperse analysis model was used.

[4] = Dissolution test of capsules, USP 27 amoxicillin capsules, apparatus 1; settings: 500 mg (anhydrous basis) in gelatine capsule size 0, 900 ml water, 37° C., 100 rpm
Method: In one aspect of the invention, the crystalline powder according to the invention has a high dissolution rate. Preferably, the crystalline powder according to the invention has a T85% of less than 55 minutes, preferably less than 50 minutes, preferably less than 40 minutes, preferably less than 30 minutes, preferably less than 25 minutes, preferably less than 20 minutes. T85% may for instance be above 5 minutes. […] The determination of T85% is preferably carried out under conditions as defined in USP 27, chapter “amoxicillin capsules”, involving the use of apparatus 1 and applying a stirring rate of 100 rpm (USP 27, paragraph 711). Preferably, samples are taken at regular intervals, e.g. each 5 minutes, to determine the quantity of dissolved amoxicillin by UV absorption.
No auxiliaries were added. Dissolution tests were applied using apparatus 1 under the conditions as described in USP 27 under paragraph “amoxicillin capsules”, including a stirring rate of 100 rpm and a temperature of 37° C. Six beakers each containing 900 ml of water were used. Samples were taken each 5 minutes, and the quantity of dissolved amoxicillin were determined employing UV absorption at the wavelength of maximum absorbance at 272 nm. • 84 wt. % of the amoxicillin was dissolved in 15 minutes. • 90 wt. % of the amoxicillin was dissolved in 20 minutes.

[5] = Flow through Klein cup; settings: Klein cup 8 mm; overheads fraction after air jet sieving 75 μm
Method: The powder of example V was subjected to air jet sieving (200 LS-N air jet sieve manufactured by Hosakawa Alpine). Sieving was carried out using a 75 μm screen during 10 minutes. A few agglomerates formed during said sieving were removed from the overheads fraction (not passed through the sieve) tusing a vibrating sieve (425 μm), after which tapped density, bulk density, d50, d10 of the resulting crystals of the overheads fraction was determined.

Compound | Bulk dens. (db) [1] [g/mL] | Tap. dens. (dt) [2] [g/mL] | db*(1/db − 1/dt)*100% [2] [%] | d10 [3] [μm] | d50 [3] [μm] | amoxicillin dissolved ([4]; in 15 minutes) [wt. %] | amoxicillin dissolved ([4]; in 20 minutes) [wt. %] | flow through Klein cup [5]
CC1(C)S[C@@H]2[C@H](NC(=O)[C@H](N)c3ccc(O)cc3)C(=O)N2[C@H]1C(=O)O.O.O.O [Comp. A, amoxicillin trihydrate, reference compound] | 0.26 | 0.55 | 53 | 4.0 | 17 |  |  | 
CC1(C)S[C@@H]2[C@H](NC(=O)[C@H](N)c3ccc(O)cc3)C(=O)N2[C@H]1C(=O)O.O.O.O [Ex. I, amoxicillin trihydrate] | 0.51 | 0.73 | 30 |  |  |  |  | 
CC1(C)S[C@@H]2[C@H](NC(=O)[C@H](N)c3ccc(O)cc3)C(=O)N2[C@H]1C(=O)O.O.O.O [Ex. II, amoxicillin trihydrate] | 0.56 | 0.78 | 28 | 8.8 | 42.8 |  |  | 

Continued, values first:

Bulk dens. (db) [1] [g/mL] | Tap. dens. (dt) [2] [g/mL] | db*(1/db − 1/dt)*100% [2] [%] | d10 [3] [μm] | d50 [3] [μm] | amoxicillin dissolved ([4]; in 15 minutes) [wt. %] | amoxicillin dissolved ([4]; in 20 minutes) [wt. %] | flow through Klein cup [5] | Compound
0.56 | 0.81 | 31 | 9.9 | 47.8 |  |  |  | CC1(C)S[C@@H]2[C@H](NC(=O)[C@H](N)c3ccc(O)cc3)C(=O)N2[C@H]1C(=O)O.O.O.O [Ex. III, amoxicillin trihydrate]
0.54 | 0.81 | 33 | 7.0 | 37.0 | 84 | 90 |  | CC1(C)S[C@@H]2[C@H](NC(=O)[C@H](N)c3ccc(O)cc3)C(=O)N2[C@H]1C(=O)O.O.O.O [Ex. IV, amoxicillin trihydrate]
0.58 | 0.79 | 26 | 19 | 61 |  |  |  | CC1(C)S[C@@H]2[C@H](NC(=O)[C@H](N)c3ccc(O)cc3)C(=O)N2[C@H]1C(=O)O.O.O.O [Ex. V, amoxicillin trihydrate]
0.59 | 0.74 | 20 | 36 | 86 |  |  | flows through Klein cup 8 mm | CC1(C)S[C@@H]2[C@H](NC(=O)[C@H](N)c3ccc(O)cc3)C(=O)N2[C@H]1C(=O)O.O.O.O [Ex. VI, amoxicillin trihydrate]
0.26 | 0.47 | 45 |  |  |  |  |  | CC1(C)S[C@@H]2[C@H](NC(=O)[C@H](N)c3ccc(O)cc3)C(=O)N2[C@H]1C(=O)O.O.O.O [Ref. B, amoxicillin trihydrate, reference compound]
